Test results from patent publication US9857359B2, “Methods for determining drug efficacy using cereblon-associated proteins” (CELGENE CORPORATION, priority 2012, dated 2018).

Columns and labels:
Aiolos [1] = test: Aiolos in siCRBN transfected primary CD3+ T cells; assay type: cell-based, human; settings: siCRBN vs siControl, 6/24 hours
Source text: Primary T cells were isolated from human leukocytes (Blood Center of New Jersey, East Orange, N.J.) by centrifugation through FICOLL® centrifugation medium following the ROSETETTESEP™ protocol (Stem Cell Technologies, Vancouver, Canada).

NCI-H929 tumor cells = test: H929 xenograft anti-tumor activity; assay type: in vivo, SCID mice; settings: H929 MM cells in mice, oral daily
Method: Female SCID mice (Fox Chase SCID®, C.B-17/Icr-Prkdcscid, Charles River) (Wilmington, Mass.) were injected subcutaneously in the right flank with total of 1×10^7 NCI-H929 tumor cells in 50% matrigel (BD Biosciences). […] Mice were monitored daily for health status as well as tumor growth. Tumors of all mice were measured with a digital caliper, and volumes were calculated with the following formula: tumor volume (mm^3)=length (mm)×width (mm)^2.

DLBCL cell lines = test: Proliferation of DLBCL cell lines in vitro; assay type: cell-based
Aiolos [2] = test: Aiolos expression in CD20+ B cells and CD3+ T cells, percentage of DMSO control (FACS); assay type: cell-based; settings: n=3
Method: The Fix buffer I was warmed up to 37° C. in an incubator or water bath prior to use. The Perm Buffer III was chilled in a −20° C. freezer prior to use. The cells were collected at the end of treatment with testing compounds. One volume of the pre-warmed Fix Buffer I was mixed with one volume of cell suspension. If the volume of the cell suspension is greater than 100 μL, the cells were spun and resuspended in 100 μL medium or PBS. The buffer and the cell suspension were mixed well and incubated in a 37° C. water bath for 10 min. The cells were spun down at 250×g for 10 min and the supernatant was aspirated. The cells were washed once with BD Stain Buffer. The pellet was spun and the supernatant was removed. The cells were vortexed to be loosened, and permeabilized by slowly adding cold Perm Buffer III while vortexing or mixing. Subsequently, the cells were incubated on ice for 30 min. The cells were then spun down and washed twice with Stain Buffer. The supernatant was spun and aspirated. The cells were resuspended in a small volume of Stain buffer (50 or 100 μL containing from 200,000 to 1 million cells). Anti-IKFZ3 antibody was added to the cell suspension at 1:1000 dilution and incubated for 45 min at 4° C. The cells were then spun down and washed once with stain buffer. Secondary antibody was added to the cells at 1:5000 dilution and incubated at room temperature for 20 min in the dark. […]

Aiolos [3] = test: SimpleWestern of normal human CD19+ B cells, Aiolos; assay type: cell-based; settings: various concentrations
Method: Human B cells were isolated from 3 donors of whole bloods from the New Jersey Blood Center using B cell isolation kits from StemCell Technologies. IKZF family proteins were quantified using the automated capillary-based SimpleWestern System Sally (ProteinSimple). 100 ng of cell lysate protein or serial dilutions of recombinant proteins were mixed in reducing buffer with fluorescent Molecular Weight (MW) standards. After these samples were heated to 95° C. for 5 min, samples were loaded into each capillary tubes and proteins were separated based on MW sizes through stacking and separation matrices for 40 minutes at 250 Volts. Proteins were then immobilized to capillary walls using optimal photoactivated capture chemistry. Following protein immobilization, capillaries were incubated with a blocking reagent for 23 min and target proteins were probed with a specific primary antibody and horseradish peroxidase-conjugated anti-rabbit secondary antibody (ProteinSimple). A mixture of luminol and peroxide (ProteinSimple) was added, the resulting chemiluminescent signal was captured by a CCD camera, and the signal intensities were quantified and analyzed using Compass Software for Sally (ProteinSimple). The Ikaros family proteins in each sample were then calculated based on standard curve of human recombinant proteins. B-Actin was also used as an internal normalization control.

Ikaros = Ikaros levels in PBMC of 32 cynomolgus monkeys; assay type: in vivo; settings: 0.04, 0.15, 0.75 mg/kg orally for 1 month
Method: 32 cynomolgus monkeys were randomly divided into 4 groups. Each group had 4 female and 4 male monkeys (n=8). The 3 groups of monkeys were orally administered with Compound B at the dose of 0.04, 0.15, 0.75 mg/kg respectively. The left group was used as the vehicle control (0.5% carboxymethyl cellulose: 0.25% Tween 80 in deionised H2O). Following dosing with drugs for 1 month, whole bloods from each monkey were sampled and PBMCs isolated. Ikaros levels in PBMCs were quantified using the automated capillary-based SimpleWestern System Sally (ProteinSimple) as previously mentioned. Analyses for multiple group comparisons were performed with 1-way analysis of variance, followed by the Dunnett post-test, using GraphPad Prism® version 5.01 (GraphPad Software, Inc., La Jolla, Calif., USA). A value of P<0.05 was considered significant in all analyses.

Aiolos [4] = test: Aiolos immunohistochemistry in OCI-LY10 xenograft lymphoma; assay type: in vivo, mice
Method: Xenografts from lymphoma OCI-LY10 cells were used for the following experiments. Immunohistochemistry was performed on the Bond-Max automated slide stainer (Leica Microsystems) using the associated Bond Polymer Refine Detection Kit. Four micron thick FFPE sections were deparaffinized on the instrument. Antigen retrieval was performed with Epitope Retrieval 2 (pH 9.0) for 20 minutes at 100° C. The slides were blocked for endogenous peroxidase activity with Peroxide Block for 5 minutes at room temperature. […] Enzymatic detection of anti-Aiolos antibody was accomplished with hydrogen peroxide substrate and diaminobenzidine tetrahydrochloride (DAB) chromogen at room temperature for 10 minutes. Slides were counterstained with Hematoxylin for 5 minutes at room temperature.

Aiolos [5] = test: Aiolos protein degradation in Jurkat cells; assay type: cell-based
Method: Jurkat cells were transfected with wildtype full length Aiolos and different lysine mutated full length Aiolos DNA (Origene, 5 μg DNA/100 μL R buffer/2×10^6 cells/shot) using Neon Transfection System (Invitrogen, Grand Island, N.Y.) with program 1350 voltage+10 width+3 pulse. GFP control DNA (Lonza) was also transfected. Transfected cells were cultured in 24-well plate with 1 mL RPMI+10% FBS at 37° C. for 6 hrs and then treated with DMSO or drug for another 48 hrs, Drug treated cells were collected for measuring Aiolos and Ikaros protein expression by western blot with antibodies against Aiolos (Santa Cruz, Dallas, Tex.) and Ikaros (Millipore, Billerica, Mass.).

## Nc1cccc2c1C(=O)N(C1CCC(=O)NC1=O)C2=O (centres unmarked) [pomalidomide, reference compound]
Aiolos [1]
  Effect in reducing or inhibiting the expression of Aiolos where CRBN is knocked-down: significantly reduced as compared to the control cells with no CRBN knock-down

## Nc1cccc2c1CN(C1CCC(=O)NC1=O)C2=O (centres unmarked) [lenalidomide]
NCI-H929 tumor cells
  In vivo antitumor activity: correlates with reduction of Aiolos and Ikaros levels
DLBCL cell lines
  Effect on non-ABC-DLBCL cells: minimal effect on non-ABC-DLBCL cells
DLBCL cell lines; in vitro
  Proliferation of ABC-DLBCL cells: preferentially suppressed proliferation of ABC-DLBCL cells

## O=C1CC[C@H](N2Cc3c(OCc4ccc(CN5CCOCC5)cc4)cccc3C2=O)C(=O)N1 [Compound B, 3-(4-((4-(morpholinomethyl)benzyl)oxy)-1-oxoisoindolin-2-yl)piperidine-2,6-dione]
Aiolos [2]
  Aiolos expression in CD3+ T cells: significantly inhibited Aiolos expression
  Aiolos expression in CD20+ B cells: significantly inhibited Aiolos expression
Aiolos [3]
  Aiolos expression: inhibited the expression of Ikaros and Aiolos
Ikaros
  Ikaros levels in PBMC: generally reduces the levels of Ikaros

## Cc1nc2cccc(N)c2c(=O)n1C1CCC(=O)NC1=O (centres unmarked) [Compound A, 3-(5-amino-2-methyl-4-oxo-4H-quinazolin-3-yl)-piperidine-2,6-dione]
Aiolos [4]; all lower than vehicle or vincristine treated tumors
  Approximate Aiolos levels in compound treated tumors (rank order): S-isomer of Compound A<Compound A<R-isomer of Compound A<lenalidomide
Aiolos [4]; immunohistochemistry
  Aiolos expression in lymphoma cells: inhibited the expression of Aiolos
Aiolos [5]
  Endogenous and over-expressed Aiolos: degrades both endogenous and over-expressed Aiolos
